{
  "source": "patent US10344034B2",
  "about": "“Pyrazolopyrimidone or Pyrrolotriazone derivatives, method of preparing same, and pharmaceutical applications thereof” (Shanghai Hengrui Pharmaceutical Co., Ltd., priority 2013, dated 2019)",
  "key": {"[1]": {"experiment": "Beagle pharmacokinetics assay", "type": "in vivo, beagles", "details": "for AUC: read-out: Area under curve AUC; for half-life: read-out: Half-life T1/2 (converted); for MRT: read-out: Residence time MRT", "procedure": "Test Example 6. Beagle Pharmacokinetics Assay of Example 11 of the Present Invention\nBeagles were used as test animals. The plasma concentrations at various times were determined by LC/MS/MS after intragastric administration of the compound of Example 11, and intravenous administration of the compound of Example 11 to beagles. The pharmacokinetic behavior of the present compound in beagles was studied, and the pharmacokinetic features were evaluated.\nEight (8) healthy beagles (half female and half male) were evenly designated into 2 groups. The animals were purchased from SuzhouXishan Zhongke Laboratory Animal Corp. Ltd.\nAn appropriate amount of sample was weighed, and added with 0.5% CMC-Na to form a 1.0 mg/ml suspension upon ultrasonic treatment;\nAppropriate amounts of drugs were weighed, and dissolved with 5 ml DMSO and 5 ml of Tween 80. Saline solution was added to the final volume.\nEight (8) healthy beagles (half female and half male) were evenly designated into 2 groups, and administered by oral gavage or intravenous injection (i.v.) (oral gavage at a dosage of 5 mg/kg with an administration volume of 5 ml/kg, and i.v. at a dosage of 2 mg/kg with an administration volume of 2 ml/kg) after fasting overnight.\n1.0 ml of blood was sampled from the foreleg vein before, and 0.25, 0.5, 1, 2, 4, 6, 8, 12, and 24 hours after oral administration, collected in a heparinized test tube, and centrifuged at 3500 rpm for 10 minutes to separate the plasma, which was stored at −20° C. The animals were allowed access to feed 2 hours after administration. Blood was sampled before, and 5 minutes, 0.25, 0.5, 1, 2, 4, 6, 8, 12, and 24 hours after intravenous administration, and treated the same as above. The content of the test compound in the plasma of beagles after administration of the compound by oral gavage and intravenous injection was determined by LC/MS/MS."}, "[2]": {"experiment": "Rat pharmacokinetics assay", "type": "in vivo, Sprague-Dawley (SD) rats", "details": "for AUC: read-out: Area under curve AUC; for half-life: read-out: Half-life T1/2 (converted); for MRT: read-out: Residence time MRT", "procedure": "Test Example 4. Rat pharmacokinetics assay of the compounds of Example 2, Example 3, Example 5, Example 9, Example 10, Example 11, and Example 13 of the present invention.\nSprague-Dawley (SD) rats were used as test animals. The plasma concentrations at various times were determined by LC/MS/MS after intragastric administration of compounds of Example 2, Example 3, Example 5, Example 9, Example 10, Example 11, and Example 13, and intravenous administration of the compound of Example 11 to the rats. The pharmacokinetic behavior of the present compounds in rats was studied, and the pharmacokinetic features were evaluated.\nThirty-two (32) healthy adult SD rats (half female and half male) were evenly designated into 8 groups (4 for each group). The animals were purchased from Shanghai Super B&K Laboratory Animal Corp. Ltd (laboratory animal production Certificate No. SCXK (HU)2008-0016).\nAn appropriate amount of sample was weighed, and added with 0.5% CMC-Na to form a 1 mg/ml suspension upon ultrasonic treatment.\nAppropriate amounts of drugs were weighed, and dissolved with 0.5 ml DMSO and 0.5 ml of Tween 80. Saline solution was added to the final volume.\nThirty-two (32) SD rats (half female and half male) were evenly designated into 8 groups (4 for each group), and administered by oral gavage or intravenous injection (i.v.) (oral gavage at a dosage of 10 mg/kg or 30 mg/kg, and i.v. at a dosage of 5.0 mg/kg), respectively, at a volume of 10 ml/kg after fasting overnight.\n0.1 ml of blood was sampled before, and 0.5, 1, 2, 4, 6, 8, 11, and 24 hours after administration, collected in a heparinized test tube, and centrifuged at 3500 rpm for 10 minutes to separate the plasma, which was stored at −20° C. The animals were allowed access to feed 2 hours after administration.\nThe content of the test compound in the plasma of rats after administration of the compound by oral gavage was determined by LC/MS/MS."}, "[3]": {"details": "both sexes, dog, plasma, iv, i.v. 2 mg/kg"}, "[4]": {"details": "both sexes, dog, plasma, oral 5 mg/kg"}, "[5]": {"details": "both sexes, Sprague-Dawley, plasma, iv, i.v. 5 mg/kg"}, "[6]": {"details": "both sexes, Sprague-Dawley, plasma, oral 10 mg/kg"}},
  "data": [
    {"smiles": "CONC(=O)Nc1ccc(-n2nc3c(c2CN(C)C)c(=O)n(-c2ccc(OC)nn2)c(=O)n3Cc2c(F)cccc2F)cc1", "note": "[Example 11, 1-(4-(7-(2,6-difluorobenzyl)-3-((dimethylamino)methyl)-5-(6-methoxypyridazin-3-yl)-4,6-dioxo-4,5,6,7-tetrahydro-2H-pyrazolo[3,4-d]pyrimidin-2-yl)phenyl)-3-methoxyurea]", "values": [
      {"measurement": "AUC", "setting": "[1]; [3]", "result": "2.3 ± 0.213", "unit": "µg·h/mL"},
      {"measurement": "half-life", "setting": "[1]; [3]", "result": "3.34 ± 0.4", "unit": "h"},
      {"measurement": "MRT", "setting": "[1]; [3]", "result": "4.02 ± 0.5", "unit": "h"},
      {"measurement": "Vd/F", "setting": "[1]; both sexes, dog, plasma, oral 5 mg/kg, read-out: Apparent volume of distribution Vz/F", "result": "7.25 ± 4.37", "unit": "L/kg"},
      {"measurement": "AUC", "setting": "[1]; [4]", "result": "5.94 ± 1.34", "unit": "µg·h/mL"},
      {"measurement": "CL/F", "setting": "[1]; both sexes, dog, plasma, oral 5 mg/kg, read-out: Clearance rate CL/F", "result": "0.882 ± 0.252", "unit": "L/h/kg"},
      {"measurement": "half-life", "setting": "[1]; [4]", "result": "5.37 ± 1.52", "unit": "h"},
      {"measurement": "Cmax", "setting": "[1]; both sexes, dog, plasma, oral 5 mg/kg, read-out: Plasma concentration Cmax", "result": "1.09 ± 0.35", "unit": "µg/mL"},
      {"measurement": "MRT", "setting": "[1]; [4]", "result": "6.4 ± 2.82", "unit": "h"},
      {"measurement": "Apparent volume of distribution Vz/F", "setting": "[1]; i.v. 2 mg/kg", "result": "4.235 ± 0.706", "unit": "L/kg"},
      {"measurement": "Clearance rate CL/F", "setting": "[1]; i.v. 2 mg/kg", "result": "0.876 ± 0.078", "unit": "L/h/kg"},
      {"measurement": "AUC", "setting": "[2]; [5]", "result": "2.67 ± 1.24", "unit": "µg·h/mL"},
      {"measurement": "half-life", "setting": "[2]; [5]", "result": "1.59 ± 0.5", "unit": "h"},
      {"measurement": "MRT", "setting": "[2]; [5]", "result": "2.25 ± 0.06", "unit": "h"},
      {"measurement": "Vd/F", "setting": "[2]; both sexes, Sprague-Dawley, plasma, oral 10 mg/kg, read-out: Apparent volume of distribution Vz/F", "result": "3.29 ± 1.51", "unit": "L/kg"},
      {"measurement": "AUC", "setting": "[2]; [6]", "result": "4.09 ± 1.44", "unit": "µg·h/mL"},
      {"measurement": "CL/F", "setting": "[2]; both sexes, Sprague-Dawley, plasma, oral 10 mg/kg, read-out: Clearance rate CL/F", "result": "2.65 ± 0.804", "unit": "L/h/kg"},
      {"measurement": "half-life", "setting": "[2]; [6]", "result": "0.84 ± 0.18", "unit": "h"},
      {"measurement": "Cmax", "setting": "[2]; both sexes, Sprague-Dawley, plasma, oral 10 mg/kg, read-out: Plasma concentration Cmax", "result": "2.44 ± 0.873", "unit": "µg/mL"},
      {"measurement": "MRT", "setting": "[2]; [6]", "result": "1.56 ± 0.34", "unit": "h"},
      {"measurement": "Apparent volume of distribution Vz/F", "setting": "[2]; i.v. 5 mg/kg", "result": "4.929 ± 2.39", "unit": "L/kg"},
      {"measurement": "Clearance rate CL/F", "setting": "[2]; i.v. 5 mg/kg", "result": "2.12 ± 0.75", "unit": "L/h/kg"}
    ]}
  ]
}
